System: 485176-168-R4-J1-PDC complex spheroid growth
Test: Anticancer human tumor 485176-168-R4-J1-PDC patient-derived pancreatic adenocarcinoma cell line growth inhibition [RAS]
Settings: for viability, T/C: stronger effect = lower value; active = viability on the fitted dose curve at most 10% of control; inactive = the rest
Procedure, shortened: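 Multi-cell-type spheroids: tumor cells plus HUVEC endothelial cells and mesenchymal stem cells. RAS-pathway inhibitors were combined with targeted agents, each dosed in half-log steps down from clinical Cmax, or from 10 microM when Cmax was unknown.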
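Note: spheroids exposed to compounds for seven days before readout.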
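Throughout, for viability, T/C: luminescence viability expressed relative to DMSO vehicle wells set as 100%.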

CC1(O)CCCC1n1c(=O)c(C(F)F)cc2cnc(NC3CCN(S(C)(=O)=O)CC3)nc21 (stereo not drawn) + CCn1c(-c2cc(N3CCN(C)CC3)cnc2C(C)OC)c2c3cc(ccc31)-c1csc(n1)CC(NC(=O)C1CC1C)C(=O)N1CCCC(N1)C(=O)OCC(C)(C)C2
active: viability, T/C (second compound 0.000949 µM, first compound 10 µM) 2.12% | viability, T/C (second compound 0.003 µM, first compound 10 µM) 1.93% | viability, T/C (second compound 0.00949 µM, first compound 10 µM) 1.63% | viability, T/C (second compound 0.03 µM, first compound 10 µM) 1.78% | viability, T/C (second compound 0.0949 µM, first compound 10 µM) 2.07% | viability, T/C (second compound 0.3 µM, first compound 10 µM) 1.81%
1390 nM: IC50 (curve of first compound, second compound 0.0949 µM)
inactive: viability, T/C (second compound 0.000949 µM, first compound 0.0316 µM) 81.1% | viability, T/C (second compound 0.000949 µM, first compound 0.1 µM) 67.5% | viability, T/C (second compound 0.000949 µM, first compound 0.316 µM) 63% | viability, T/C (second compound 0.000949 µM, first compound 1 µM) 48.1% | viability, T/C (second compound 0.000949 µM, first compound 3.16 µM) 48.4% | viability, T/C (second compound 0.003 µM, first compound 0.0316 µM) 73.9% | viability, T/C (second compound 0.003 µM, first compound 0.1 µM) 56% | viability, T/C (second compound 0.003 µM, first compound 0.316 µM) 71.5% | viability, T/C (second compound 0.003 µM, first compound 1 µM) 59.7% | viability, T/C (second compound 0.003 µM, first compound 3.16 µM) 54.9% | viability, T/C (second compound 0.00949 µM, first compound 0.0316 µM) 78.6% | viability, T/C (second compound 0.00949 µM, first compound 0.1 µM) 68.6% | viability, T/C (second compound 0.00949 µM, first compound 0.316 µM) 60.8% | viability, T/C (second compound 0.00949 µM, first compound 1 µM) 61.5% | viability, T/C (second compound 0.00949 µM, first compound 3.16 µM) 41.5% | viability, T/C (second compound 0.03 µM, first compound 0.0316 µM) 63.7% | viability, T/C (second compound 0.03 µM, first compound 0.1 µM) 50.4% | viability, T/C (second compound 0.03 µM, first compound 0.316 µM) 56.6% | viability, T/C (second compound 0.03 µM, first compound 1 µM) 56% | viability, T/C (second compound 0.03 µM, first compound 3.16 µM) 43.1% | viability, T/C (second compound 0.0949 µM, first compound 0.0316 µM) 59.4% | viability, T/C (second compound 0.0949 µM, first compound 0.1 µM) 60.9% | viability, T/C (second compound 0.0949 µM, first compound 0.316 µM) 51.3% | viability, T/C (second compound 0.0949 µM, first compound 1 µM) 49.4% | viability, T/C (second compound 0.0949 µM, first compound 3.16 µM) 44.7% | viability, T/C (second compound 0.3 µM, first compound 0.0316 µM) 75.7% | viability, T/C (second compound 0.3 µM, first compound 0.1 µM) 48.5% | viability, T/C (second compound 0.3 µM, first compound 0.316 µM) 44% | viability, T/C (second compound 0.3 µM, first compound 1 µM) 58.9% | viability, T/C (second compound 0.3 µM, first compound 3.16 µM) 43%
1720 nM: IC50 (curve of first compound, second compound 0.00949 µM)
1460 nM: IC50 (curve of first compound, second compound 0.000949 µM)
1510 nM: IC50 (curve of first compound, second compound 0.3 µM)
3440 nM: IC50 (curve of first compound, second compound 0.003 µM)
1660 nM: IC50 (curve of first compound, second compound 0.03 µM)

CCc1c2c(nc3ccc(O)cc13)-c1cc3c(c(=O)n1C2)COC(=O)[C@]3(O)CC
17.9 nM [middle of 4 runs]: IC50 (curve of compound)
inactive: viability, T/C (compound 0.003 µM) 86.2% [middle of 4 runs] | viability, T/C (compound 0.00949 µM) 66% [middle of 4 runs] | viability, T/C (compound 0.03 µM) 36.5% [middle of 4 runs] | viability, T/C (compound 0.0949 µM) 14% [middle of 4 runs]
active: viability, T/C (compound 0.3 µM) 7.88% [middle of 4 runs]

Source: PubChem BioAssay AID2060906 (Molecular Pharmacology Branch, DTP, NCI, 2025)
